Key:
guinea pig heart = assay: Atrial fibrillation induced by high- and low-potassium Langendorff perfusion of the guinea pig heart; conditions: for Incidence (%) of atrial fibrillation / Number of animals developing atrial fibrillation: within 60 min of low-potassium perfusion
From the text: Method: a total of 24 guinea pigs were divided into 4 groups according to body weight, and were sacrificed. The heart was quickly taken out, and the blood was squeezed in the ice bath perfusion solution. The heart was quickly transferred in the Langendorff perfusion system, and the perfusion at a constant rate was started by turning on the oxygen-saturated perfusate. One end of the electrode was placed at the cardiac apex, and one end was placed at the right atrium (the position of the atrial appendage). The electrocardiogram was recorded on the computer.
After the heart was stabilized, 10 min after the perfusion of high-K perfusate, blank vehicle, 0.1 μM, 1 μM, and 10 μM of Compound 369, 1 μM Amiodarone and Cyclovirobuxine D were simultaneously administrated and the high K perfusion was continued for 20 min, respectively. Then, the high K perfusion was removed to administrate the low-K perfusate, and the electrocardiogram was obtained at the same time to record whether there was atrial fibrillation within 60 min of low-potassium perfusion.

[1] = Pharmacokinetics in SD rats; assay type: in vivo, rat; conditions: rat, in vivo
Method: Method: twelve SD male rats were divided into four groups: 2 mg/kg of Compound 369 or cyclovirobuxine D was single dose through the intravenous injection or intragastrical administration, respectively. In the intravenous and intragastrical groups, blood samples (about 0.3 Ml) were collected from the posterior orbital venous plexus pro-dose and 0.25 h, 0.5 h, 1 h, 2 h, 4 h, 6 h, 8 h, and 12 h post-dose. The concentrations of Compound 369 and cyclovirobuxine D in plasma samples were determined by LC-MS/MS, and the pharmacokinetic parameters were calculated by DAS.3.0 software.

[2] = Pharmacokinetics in Beagle canines; assay type: in vivo; conditions: dog, in vivo
Method: Method: Six healthy male Beagle canines were selected and divided into two groups. 2 mg/kg of Compound 369 or cyclovirobuxine D was administrated intragastrically, respectively. Blood samples (about 2 mL) were collected from the limb venous of canines 0 h before administration as well as 0.25 h, 0.5 h, 1 h, 2 h, 4 h, 6 h, 8 h, and 12 h after administration. The concentrations of Compound 369 and cyclovirobuxine D in plasma samples were determined by LC-MS/MS, and the pharmacokinetic parameters were calculated by DAS.3.0 software.

## CN[C@H]1CC[C@]23C[C@]24CC[C@]2(C)C(C(C)=O)=CC[C@@]2(C)[C@@H]4CC[C@H]3C1(C)C [Compound 369, (3β,5α)-4,4,14-trimethyl-3-(methylamino)-9,19-cyclopregnan-16-en-20-one]
Guinea pig heart; 0.1 μM to 10 μM, dose-dependent
  Number of animals developing atrial fibrillation compared to the vehicle group (in words): significantly decreased
Guinea pig heart; 0.1 μM
  Incidence (%) of atrial fibrillation: 80%
  Number of animals developing atrial fibrillation: 4
Guinea pig heart; 1 μM
  Incidence of atrial fibrillation for ex vivo heart vs cyclovirobuxine D (in words): significantly lower
  Incidence (%) of atrial fibrillation: 33%
  Number of animals developing atrial fibrillation: 2
Guinea pig heart; 10 μM
  Incidence (%) of atrial fibrillation: 0%
  Number of animals developing atrial fibrillation: 0
[1]; male, SD, 2 mg/kg
  F: 35%
[1]; male, SD, iv, 2 mg/kg
  AUC(0-t): 249 ng·h/mL
  Cmax: 103 ng/mL
  Tmax: 0.25 h
  half-life: 4.1 h
[1]; male, SD, po, 2 mg/kg
  AUC(0-t): 84.6 ng·h/mL
  Cmax: 11.4 ng/mL
  Tmax: 5 h
  half-life: 3.5 h
[1]
  Exposures in plasma (AUC and Cmax values) vs cyclovirobuxine D (in words): slightly lower than that of cyclovirobuxine D
  Half-life (T1/2) vs cyclovirobuxine D (in words): significantly shorter than that of cyclovirobuxine D
[2]
  Exposures in plasma (AUC and Cmax values) vs cyclovirobuxine D (in words): higher than that of cyclovirobuxine D
  Half-life (T1/2) vs cyclovirobuxine D (in words): shorter than that of cyclovirobuxine D
[2]; male, Beagle, po, 2 mg/kg
  AUC(0-t): 505 ng·h/mL
  Cmax: 43.4 ng/mL
  Tmax: 2.67 h
  half-life: 11.1 h

Source: US10568892B2, “Cycloartane tetracyclic triterpenoid compound, preparation method therefor and use thereof” (Hefei Cosource Pharmaceuticals Inc., priority 2016, dated 2020)
